Source: ChEMBL document CHEMBL4342498, “Design and Discovery of an Orally Efficacious Spiroindolinone-Based Tankyrase Inhibitor for the Treatment of Colon Cancer” (J Med Chem, 2020)
In brackets after ≈: the same amount, converted by molar mass.

Legend:
COLO 320DM [1] = experiment: Antiproliferative activity against human COLO320DM cells assessed as inhibition of cell growth measured after 4 days by CellTiter-Glo assay; format: functional; conditions: 96 h
[2] = Permeability of the compound measured after 4 hrs by PAMPA; format: ADME; conditions: read-out: permeability
[3] = Stability in mouse liver microsomes assessed as parent compound remaining at 1 uM measured after 60 mins in presence of NADPH by LC-MS/MS analysis; format: ADME, Microsome; conditions: read-out: Stability
[4] = Stability in rat liver microsomes assessed as parent compound remaining at 1 uM measured after 30 mins in presence of NADPH by LC-MS/MS analysis; format: ADME, Microsome; conditions: read-out: Stability
[5] = Stability in rat liver microsomes assessed as parent compound remaining at 1 uM measured after 60 mins in presence of NADPH by LC-MS/MS analysis; format: ADME, Microsome; conditions: read-out: Stability
[6] = Stability in human liver microsomes assessed as parent compound remaining at 1 uM measured after 60 mins in presence of NADPH by LC-MS/MS analysis; format: ADME, Microsome; conditions: read-out: Stability
[7] = Protein binding in human plasma assessed as unbound fraction at 1 uM measured after 24 hrs by LC-MS/MS analysis; format: ADME, cell-free
[8] = Protein binding in mouse plasma assessed as unbound fraction at 1 uM measured after 24 hrs by LC-MS/MS analysis; format: ADME, cell-free
[9] = target: Poly [ADP-ribose] polymerase 1 (Homo sapiens, UniProt P09874); experiment: Inhibition of recombinant human PARP1 expressed in Escherichia coli assessed as reduction in auto-PARylation using histone as substrate measured after 45 mins in presence of biotinylated-NAD+ by ELISA
COLO 320DM [10] = experiment: Antiproliferative activity against human COLO320DM cells assessed inhibition of cell growth measured after 5 days by MTT assay; format: functional; conditions: 120 h
RKO = experiment: Antiproliferative activity against human RKO cells assessed inhibition of cell growth measured after 5 days by MTT assay; format: functional; conditions: 120 h
[11] = target: Tankyrase 1/2 (Homo sapiens) (UniProt Q9H2K2+O95271); experiment: Inhibition of TNKS/TNKS2-mediated WNT/beta-catenin signaling pathway in human COLO320DM cells assessed as upregulation of AXIN2 expression at 0.1 uM measured after 16 hrs by Western blot analysis relative to control; format: cell-based
[12] = Dose normalized initial plasma concentration in Sprague-Dawley rat at 1 mg/kg, iv; format: ADME, organism-based; conditions: in vivo
[13] = Dose normalized AUC (infinity) in Sprague-Dawley rat at 1 mg/kg, iv; format: ADME, organism-based; conditions: in vivo
COLO 320DM [14] = experiment: Antitumor activity against human COLO320DM cells xenografted in Prkdc-NOD-SCID CB17 mouse assessed as tumor growth inhibition at 150 mg/kg, ip administered twice daily for 5 days followed by 2 days interval for 2 cycles relative to control; format: functional; conditions: read-out: TGI
COLO 320DM [15] = experiment: Antitumor activity against human COLO320DM cells xenografted in Prkdc-NOD-SCID CB17 mouse assessed as tumor growth inhibition at 300 mg/kg, po administered twice daily for 5 days followed by 2 days interval for 2 cycles relative to control; format: functional; conditions: read-out: TGI
Tankyrase 1/2 [16] = target: T1, Tankyrase 1/2 (Homo sapiens, UniProt Q9H2K2+O95271); conditions: hek293
T1 sequence (Q9H2K2 whole entry): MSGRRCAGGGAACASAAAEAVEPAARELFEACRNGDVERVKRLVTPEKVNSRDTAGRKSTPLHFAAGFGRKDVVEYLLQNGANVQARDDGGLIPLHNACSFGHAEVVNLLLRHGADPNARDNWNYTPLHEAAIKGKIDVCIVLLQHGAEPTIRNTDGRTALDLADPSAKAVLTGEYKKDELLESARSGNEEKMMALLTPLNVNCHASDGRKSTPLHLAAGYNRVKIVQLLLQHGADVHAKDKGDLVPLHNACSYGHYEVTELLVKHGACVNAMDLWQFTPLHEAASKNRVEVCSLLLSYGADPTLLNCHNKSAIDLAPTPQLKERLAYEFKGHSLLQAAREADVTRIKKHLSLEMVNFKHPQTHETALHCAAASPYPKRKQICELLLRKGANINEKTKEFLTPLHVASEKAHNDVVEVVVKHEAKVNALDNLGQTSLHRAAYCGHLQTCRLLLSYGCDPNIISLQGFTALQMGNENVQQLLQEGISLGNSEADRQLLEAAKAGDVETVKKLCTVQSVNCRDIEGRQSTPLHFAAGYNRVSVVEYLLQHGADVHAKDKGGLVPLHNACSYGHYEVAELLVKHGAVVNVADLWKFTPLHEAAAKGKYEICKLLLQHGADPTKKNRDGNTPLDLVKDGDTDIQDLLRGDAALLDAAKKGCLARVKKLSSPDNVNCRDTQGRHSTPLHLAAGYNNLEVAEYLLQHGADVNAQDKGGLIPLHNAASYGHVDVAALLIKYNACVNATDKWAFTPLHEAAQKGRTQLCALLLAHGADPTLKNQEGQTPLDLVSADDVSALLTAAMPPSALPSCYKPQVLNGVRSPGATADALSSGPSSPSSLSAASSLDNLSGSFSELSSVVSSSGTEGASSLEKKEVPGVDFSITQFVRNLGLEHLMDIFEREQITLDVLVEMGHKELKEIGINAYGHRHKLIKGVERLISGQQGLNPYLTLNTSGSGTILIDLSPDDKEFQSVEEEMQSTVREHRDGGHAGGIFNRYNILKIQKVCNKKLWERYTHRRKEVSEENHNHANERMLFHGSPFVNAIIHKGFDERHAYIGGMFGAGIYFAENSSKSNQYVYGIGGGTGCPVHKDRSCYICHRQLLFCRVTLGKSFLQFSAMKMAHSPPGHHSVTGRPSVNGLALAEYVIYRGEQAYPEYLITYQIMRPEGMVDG
T1 sequence (O95271 whole entry): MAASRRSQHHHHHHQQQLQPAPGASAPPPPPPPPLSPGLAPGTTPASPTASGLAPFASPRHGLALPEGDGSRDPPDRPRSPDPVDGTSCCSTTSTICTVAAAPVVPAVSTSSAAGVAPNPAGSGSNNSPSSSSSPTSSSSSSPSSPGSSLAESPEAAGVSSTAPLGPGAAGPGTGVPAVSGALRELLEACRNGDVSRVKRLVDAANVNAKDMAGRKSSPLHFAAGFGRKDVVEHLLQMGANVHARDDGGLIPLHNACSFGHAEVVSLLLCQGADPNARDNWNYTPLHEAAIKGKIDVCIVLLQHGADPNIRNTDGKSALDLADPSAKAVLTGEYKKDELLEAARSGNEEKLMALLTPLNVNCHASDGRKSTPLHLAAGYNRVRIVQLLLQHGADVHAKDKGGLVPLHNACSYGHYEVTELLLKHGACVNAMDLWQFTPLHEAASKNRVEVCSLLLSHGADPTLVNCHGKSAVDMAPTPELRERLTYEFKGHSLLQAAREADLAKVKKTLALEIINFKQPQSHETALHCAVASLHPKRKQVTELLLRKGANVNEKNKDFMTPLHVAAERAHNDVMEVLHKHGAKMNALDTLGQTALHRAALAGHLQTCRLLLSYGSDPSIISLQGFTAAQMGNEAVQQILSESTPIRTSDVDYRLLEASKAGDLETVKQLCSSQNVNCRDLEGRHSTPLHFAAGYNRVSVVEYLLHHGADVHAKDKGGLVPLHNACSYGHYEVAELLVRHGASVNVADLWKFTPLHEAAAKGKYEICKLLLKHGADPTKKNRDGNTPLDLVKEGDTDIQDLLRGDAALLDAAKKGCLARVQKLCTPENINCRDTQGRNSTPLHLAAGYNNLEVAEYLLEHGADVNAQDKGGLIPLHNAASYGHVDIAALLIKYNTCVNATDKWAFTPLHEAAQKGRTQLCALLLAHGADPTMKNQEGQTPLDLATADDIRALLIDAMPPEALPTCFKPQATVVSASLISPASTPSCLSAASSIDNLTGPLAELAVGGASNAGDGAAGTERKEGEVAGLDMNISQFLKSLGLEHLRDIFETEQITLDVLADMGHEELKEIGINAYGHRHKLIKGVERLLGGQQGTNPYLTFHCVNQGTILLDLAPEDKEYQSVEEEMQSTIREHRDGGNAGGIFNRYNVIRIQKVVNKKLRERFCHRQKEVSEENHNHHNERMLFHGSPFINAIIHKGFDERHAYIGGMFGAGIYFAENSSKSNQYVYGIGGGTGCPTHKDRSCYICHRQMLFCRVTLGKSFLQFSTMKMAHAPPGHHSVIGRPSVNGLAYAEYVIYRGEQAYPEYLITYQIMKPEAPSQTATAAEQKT
Description: Inhibition of TNKS/TNKS2 (unknown origin) expressed in HEK293 cells assessed as reduction in Wnt-signaling measured after 24 hrs by TCF-luciferase reporter gene assay

Tankyrase 1/2 [17] = target: T1, Tankyrase 1/2
Description: Inhibition of TNKS/TNKS2 (unknown origin) expressed in human DLD1 cells assessed as reduction in Wnt-signaling measured after 24 hrs by TCF-luciferase reporter gene assay

[18] = target: T2, Poly [ADP-ribose] polymerase tankyrase-2 (Homo sapiens, UniProt Q9H2K2); experiment: Inhibition of recombinant human N-terminal TEV cleavage site-fused/FLAG-poly his-tagged TNKS2 ARC5-SAM-PARP domain (613 to 1166 residues) expressed in Escherichia coli assessed as reduction in auto-PARylation preincubated for 10 mins followed by biotinylated-NAD+ addition and measured after 45 mins by ELISA
T2 sequence (Q9H2K2 whole entry): T1 sequence (Q9H2K2 whole entry)

[19] = Stability in mouse liver microsomes assessed as parent compound remaining at 1 uM measured after 30 mins in presence of NADPH by LC-MS/MS analysis; format: ADME, Microsome; conditions: read-out: Stability
[20] = Stability in human liver microsomes assessed as parent compound remaining at 1 uM measured after 30 mins in presence of NADPH by LC-MS/MS analysis; format: ADME, Microsome; conditions: read-out: Stability
MDR1 = experiment: Efflux ratio of permeability across basolateral to apical side over apical to basolateral side in MDCK2-MDR1 cells; format: ADME, cell-based, Canis lupus familiaris; conditions: dog, MDCK-MDR1
[21] = Efflux ratio of permeability across basolateral to apical side over apical to basolateral side in MDCK2 cells; format: ADME, cell-based, Canis lupus familiaris, MDCK-II; conditions: dog, mdck
[22] = Net efflux ratio of permeability across basolateral to apical side over apical to basolateral side in MDCK2-MDR1 cells to MDCK2 cells; format: ADME, cell-based, Canis lupus familiaris; conditions: dog, mdck
[23] = target: T3, Poly [ADP-ribose] polymerase tankyrase-1 (Homo sapiens, UniProt O95271)
T3 sequence (O95271 whole entry): T1 sequence (O95271 whole entry)
Description: Inhibition of recombinant human N-terminal TEV cleavage site-fused/FLAG-poly his-tagged TNKS SAM-PARP domain (1024 to 1327 residues) expressed in Escherichia coli assessed as reduction in auto-PARylation preincubated for 10 mins followed by biotinylated-NAD+ addition and measured after 45 mins by ELISA

physchem = conditions: phosphate buffered saline, pH 7.4

Poly [ADP-ribose] polymerase 1, sequence (P09874 whole entry): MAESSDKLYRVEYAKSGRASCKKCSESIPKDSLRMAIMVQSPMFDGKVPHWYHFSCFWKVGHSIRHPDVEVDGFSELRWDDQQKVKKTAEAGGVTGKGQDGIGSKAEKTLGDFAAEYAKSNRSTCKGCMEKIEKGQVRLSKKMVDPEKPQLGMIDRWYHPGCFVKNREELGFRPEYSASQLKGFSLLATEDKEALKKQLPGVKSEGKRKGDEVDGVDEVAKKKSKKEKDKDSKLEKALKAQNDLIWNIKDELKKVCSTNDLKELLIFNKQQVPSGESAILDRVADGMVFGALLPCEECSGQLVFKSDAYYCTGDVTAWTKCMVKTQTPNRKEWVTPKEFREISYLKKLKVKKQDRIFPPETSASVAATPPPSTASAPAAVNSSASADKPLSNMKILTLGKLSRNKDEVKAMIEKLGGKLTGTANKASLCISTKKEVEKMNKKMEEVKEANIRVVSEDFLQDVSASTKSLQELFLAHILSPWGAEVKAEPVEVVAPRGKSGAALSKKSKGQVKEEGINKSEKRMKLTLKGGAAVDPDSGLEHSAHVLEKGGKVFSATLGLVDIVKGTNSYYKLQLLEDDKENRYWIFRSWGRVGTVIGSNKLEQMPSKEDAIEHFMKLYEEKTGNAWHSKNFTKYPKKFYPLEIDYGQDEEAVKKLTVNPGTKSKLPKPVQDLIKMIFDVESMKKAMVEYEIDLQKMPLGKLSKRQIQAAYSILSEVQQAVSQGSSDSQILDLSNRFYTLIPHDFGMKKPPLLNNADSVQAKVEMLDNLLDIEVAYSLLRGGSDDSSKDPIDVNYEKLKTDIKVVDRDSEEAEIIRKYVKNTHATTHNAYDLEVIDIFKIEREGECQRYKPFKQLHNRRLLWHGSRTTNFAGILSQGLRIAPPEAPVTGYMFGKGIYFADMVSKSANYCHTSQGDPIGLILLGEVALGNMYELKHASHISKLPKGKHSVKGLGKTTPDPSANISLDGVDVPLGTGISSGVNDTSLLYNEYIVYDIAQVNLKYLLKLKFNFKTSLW

GI50 (COLO 320DM [1]) [nM]	Papp at 4 h [2] [×10⁻⁶ cm/s]	remaining at 1 h, 1 µM [3] [%]	remaining at 0.5 h, 1 µM [4] [%]	remaining at 1 h, 1 µM [5] [%]	remaining at 1 h, 1 µM [6] [%]	fraction unbound at 24 h, 1 µM [7]	fraction unbound at 24 h, 1 µM [8]	IC50 (Tankyrase 1/2 [16]) [nM]	IC50 (Tankyrase 1/2 [17]) [nM]	IC50 [18] [nM]	remaining at 0.5 h, 1 µM [19] [%]	remaining at 0.5 h, 1 µM [20] [%]	IC50 [23] [nM]	solubility at 1 h, 200 µM (physchem) [µg/mL]	Compound	also measured
1630	2	3.2 to 18.3	12.8	3.2	2.2 to 5.9	0.004 to 0.015	0.004 to 0.015	12.1	77.6						O=c1[nH]c(N2CCC3(CC2)CN(CCO)c2cc(F)cc(F)c23)nc2c1CCCC2	IC50 [9]: > 100000 nM; GI50 (COLO 320DM [10]): 450 nM; GI50 (RKO): > 10000 nM; fold change (FC) [11]: 4.42; C0/dose [12]: 9.84 µM; AUC/dose [13]: 4.42 µmol·h/L; inhibition in vivo at 150 mg/kg (COLO 320DM [14]): 47.2%; inhibition in vivo at 300 mg/kg (COLO 320DM [15]): 51.9%
250	3	2 to 8.5	2	0.5	6.3	0.022	0.083	1.1	3.9	13.5	21.2	21	7.5	82.9 (≈ 186 µM)	CN1CCCc2c1nc(N1CCC3(CC1)C(=O)N(CCO)c1cc(F)cc(F)c13)[nH]c2=O	efflux ratio (MDR1): 24.6; efflux ratio [21]: 6.4; Ratio [22]: 3.8
250	3.3	0.2	0.4	0.2	1.4	0.005	0.002	2.7	7	21.4	0.3	7.4	13.6	40.2 (≈ 93.2 µM)	CN1CCCc2c1nc(N1CCC3(CC1)CN(CCO)c1cc(F)cc(F)c13)[nH]c2=O	
